Several values for one entry are separate records, joined by “and”; a condition that tells them apart may be missing. Identical values can stand only once.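 All cell lines were grown in 96-well plates and treated with compound for 48 hours. Here, GI50 denotes the concentration required for 50% inhibition of growth.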 Activity calls are given as the source filed them. Rule as the data show it: active = GI50 up to about 1.1 µM and inactive = higher.
Legend:
Experiment in all cases: inhibition of tumour cell growth, NCI panel, 48 h
COLO 205 = test system: COLO 205
Malme-3M = test system: Malme-3M
SN12C = test system: SN12C
CAKI-1 = test system: CAKI-1
SK-MEL-2 = test system: SK-MEL-2
A549 = test system: A549
OVCAR-3 = test system: OVCAR-3
EKVX = test system: EKVX
OVCAR-4 = test system: OVCAR-4
OVCAR-8 = test system: OVCAR-8
786-0 = test system: 786-0
SK-MEL-5 = test system: SK-MEL-5
K562 = test system: K562
RXF 393 = test system: RXF 393
TK-10 = test system: TK-10

Measured: GI50

COc1ccc(C(C2=C(C)C(=O)c3ccccc3C2=O)c2ccc(C(C)C)cc(=O)c2O)cc1 (configuration not stated)
inactive: COLO 205 5.31 µM | Malme-3M 4.26 µM | SN12C 2.87 µM | CAKI-1 3.03 µM | SK-MEL-2 1.16 µM | A549 3.55 µM | OVCAR-3 2.68 µM | EKVX 2.77 µM | OVCAR-4 6.49 µM | OVCAR-8 4.18 µM | 786-0 2.53 µM | SK-MEL-5 5.96 µM | K562 3.55 µM

O=C(COc1ccc(/C=C/C(=O)c2ccc(Cl)cc2)cc1)Nc1c(Cl)cccc1Cl
inactive: COLO 205 > 100 µM | Malme-3M > 100 µM | SN12C > 100 µM | CAKI-1 > 100 µM | A549 > 100 µM | OVCAR-3 > 100 µM | EKVX > 100 µM | OVCAR-4 94 µM | OVCAR-8 51.4 µM | 786-0 > 100 µM | SK-MEL-5 48.3 µM | RXF 393 36 µM | TK-10 > 100 µM

OC(c1ccccc1)(c1ccccc1)c1ccccn1
inactive: COLO 205 > 100 µM | Malme-3M > 100 µM | SN12C > 100 µM | CAKI-1 > 100 µM and 85.7 µM | SK-MEL-2 > 100 µM | A549 > 100 µM | OVCAR-3 > 100 µM | EKVX > 100 µM | OVCAR-4 > 100 µM | OVCAR-8 > 100 µM | 786-0 > 100 µM | SK-MEL-5 > 100 µM | RXF 393 > 100 µM | TK-10 > 100 µM | K562 > 100 µM

N#CC1(C#N)C2C=CC(c3coc4cccc2c34)C1(C#N)C#N (configuration not stated)
inactive: COLO 205 1.9 µM | Malme-3M 7.05 µM | SN12C 11 µM | SK-MEL-2 31.7 µM | A549 17.9 µM | OVCAR-3 15.7 µM | EKVX 15.5 µM | OVCAR-4 31.8 µM | OVCAR-8 3.47 µM | 786-0 20.5 µM | SK-MEL-5 15.4 µM | RXF 393 3.91 µM | TK-10 7.05 µM | K562 2.27 µM

O=C1OC(O)c2cc3c(cc21)OCO3 (configuration not stated)
inactive: COLO 205 > 100 µM | Malme-3M > 100 µM | SN12C > 100 µM | CAKI-1 > 100 µM | SK-MEL-2 > 100 µM | A549 > 100 µM | OVCAR-3 > 100 µM | EKVX > 100 µM | OVCAR-4 > 100 µM | OVCAR-8 > 100 µM | 786-0 > 100 µM | SK-MEL-5 > 100 µM | RXF 393 > 100 µM | TK-10 > 100 µM | K562 > 100 µM

COc1cc(CC(=O)c2cc3c(cc2-c2ccccc2)OCO3)cc(OC)c1OC
inactive: COLO 205 56.4 µM | Malme-3M 16.9 µM | SN12C 68.7 µM | SK-MEL-2 44.2 µM | A549 26.1 µM | OVCAR-3 31 µM | EKVX 10.8 µM | OVCAR-4 27.1 µM | OVCAR-8 58.7 µM | 786-0 > 100 µM | SK-MEL-5 6.62 µM | RXF 393 30.2 µM | TK-10 32.9 µM | K562 15.8 µM

Cc1nc(-n2nc(-c3ccccc3)cc2-c2ccccc2)sc1C(/C=C/c1ccc([N+](=O)[O-])cc1)=N/NC(N)=S
inactive: COLO 205 33.2 µM | Malme-3M > 100 µM | SN12C > 100 µM | CAKI-1 60.3 µM | SK-MEL-2 33.9 µM | A549 97.3 µM | OVCAR-3 38.2 µM | EKVX > 100 µM | OVCAR-8 39.8 µM | 786-0 18.2 µM | SK-MEL-5 28.8 µM | RXF 393 54.1 µM | TK-10 > 100 µM | K562 21.6 µM

CC1=C(C)C(=O)c2c(cc3c4ccccc4ccn23)C1=O
inactive: COLO 205 > 100 µM | Malme-3M > 100 µM | SN12C > 100 µM | SK-MEL-2 > 100 µM | A549 > 100 µM | OVCAR-3 > 100 µM | EKVX > 100 µM | OVCAR-8 > 100 µM | 786-0 > 100 µM | SK-MEL-5 > 100 µM | RXF 393 > 100 µM | TK-10 > 100 µM | K562 > 100 µM

CC(C)CC1CC2C(=O)N(c3ccccc3)C(=O)C2c2[nH]c3ccccc3c21 (configuration not stated)
inactive: COLO 205 31 µM | Malme-3M 9.73 µM | SN12C 13.9 µM | CAKI-1 18.7 µM | SK-MEL-2 25.6 µM | A549 22.4 µM | OVCAR-3 13.1 µM | EKVX > 52.2 µM | OVCAR-4 8.3 µM | OVCAR-8 14.9 µM | 786-0 66.5 µM | SK-MEL-5 > 80.9 µM | RXF 393 14.6 µM | K562 6.1 µM

C=C(CN(CC(=C)C(=O)c1ccccc1)C(C)(C)C)C(=O)c1ccccc1
inactive: COLO 205 2.65 µM | Malme-3M 15.3 µM | SN12C 16.3 µM | CAKI-1 4.28 µM | SK-MEL-2 18.2 µM | A549 28.4 µM | OVCAR-3 13.8 µM | EKVX 18.9 µM | OVCAR-4 11.6 µM | OVCAR-8 20.5 µM | 786-0 11.3 µM | SK-MEL-5 16.8 µM | RXF 393 5.36 µM | TK-10 13.8 µM | K562 3.01 µM

Cc1cc2c(=O)cc(-c3ccc(O)cc3)oc2c(C(=O)O)c1C
inactive: COLO 205 > 100 µM | Malme-3M > 100 µM | SN12C > 100 µM | CAKI-1 22 µM | SK-MEL-2 > 100 µM | A549 > 100 µM | OVCAR-3 > 100 µM | EKVX > 100 µM | OVCAR-4 > 100 µM | OVCAR-8 > 100 µM | 786-0 > 100 µM | SK-MEL-5 > 100 µM | TK-10 > 100 µM | K562 > 100 µM

CCN(CC)c1ccc(Cl)c2c1C(O)(C(C)C)C2(C)C (configuration not stated)
inactive: COLO 205 15.2 µM | Malme-3M 13.9 µM | SN12C 16.7 µM | CAKI-1 20 µM | SK-MEL-2 14.1 µM | A549 19.9 µM | OVCAR-3 12.6 µM | OVCAR-4 19 µM | OVCAR-8 18.9 µM | 786-0 14.5 µM | SK-MEL-5 15.4 µM | RXF 393 16 µM | TK-10 16.6 µM | K562 19 µM

Nc1nc2c3nc(Nc4ccccc4)sc3nc(=S)n2c2sc(Nc3ccccc3)nc12
inactive: COLO 205 > 100 µM | Malme-3M 47.4 µM | SN12C 65.5 µM | A549 > 100 µM | EKVX > 100 µM | OVCAR-4 > 100 µM | OVCAR-8 15.2 µM | 786-0 73.8 µM | SK-MEL-5 > 100 µM | RXF 393 > 100 µM | K562 > 100 µM

CCOC(=O)C/N=c1\nc(SC)sc2c(C(=O)OCC)nc(Sc3ccccc3)n12
inactive: COLO 205 > 100 µM | Malme-3M 32.6 µM | SN12C 91.4 µM | CAKI-1 13.4 µM | SK-MEL-2 58.9 µM | A549 > 10 µM | OVCAR-3 30.3 µM | EKVX 45.1 µM | OVCAR-4 41.2 µM | OVCAR-8 39.3 µM | 786-0 21.6 µM | SK-MEL-5 > 100 µM | TK-10 25.9 µM | K562 16.1 µM

Cc1c(C(=O)/C=C/C=C/c2ccccc2)[n+]([O-])c2ccccc2[n+]1[O-]
inactive: COLO 205 35 µM | Malme-3M 28.9 µM | SN12C 23.5 µM | CAKI-1 51.8 µM | SK-MEL-2 31.7 µM | A549 22.9 µM | OVCAR-3 26.1 µM | EKVX 51.2 µM | OVCAR-4 31.2 µM | OVCAR-8 42.8 µM | 786-0 21.9 µM | SK-MEL-5 19.9 µM | TK-10 50.8 µM | K562 31.8 µM

COc1cc(OC)c2c(=O)c3cccc([N+](=O)[O-])c3n(C)c2c1
inactive: COLO 205 > 100 µM | Malme-3M > 100 µM | SN12C 95.3 µM | CAKI-1 > 100 µM | SK-MEL-2 > 100 µM | A549 > 100 µM | EKVX > 100 µM | OVCAR-4 > 100 µM | OVCAR-8 > 100 µM | 786-0 > 100 µM | SK-MEL-5 > 100 µM | RXF 393 > 100 µM | TK-10 > 100 µM | K562 > 100 µM

Cc1ccc(-c2cc(-c3ccco3)nc(N)n2)o1
inactive: COLO 205 > 100 µM | Malme-3M > 100 µM | SN12C > 100 µM | SK-MEL-2 > 100 µM | A549 > 100 µM | OVCAR-3 > 100 µM | EKVX 65.2 µM | OVCAR-4 > 100 µM | OVCAR-8 > 100 µM | 786-0 > 100 µM | SK-MEL-5 > 100 µM | RXF 393 > 100 µM | TK-10 > 100 µM | K562 > 100 µM

[O-][S+](Cc1ccccc1)c1nc2ccccc2nc1-c1cccs1 (configuration not stated)
inactive: COLO 205 20 µM | Malme-3M 6.18 µM | SN12C 14 µM | SK-MEL-2 9.66 µM | A549 15.2 µM | OVCAR-3 11.2 µM | EKVX 27.5 µM | OVCAR-4 5.78 µM | OVCAR-8 13.7 µM | 786-0 11.3 µM | SK-MEL-5 11.4 µM | TK-10 14.3 µM | K562 5.38 µM

CCCCC(C(=O)C(=O)Nc1ccccc1CC)C(=O)C(C)C (configuration not stated)
inactive: COLO 205 > 100 µM | Malme-3M > 100 µM | SN12C > 100 µM | CAKI-1 > 100 µM | SK-MEL-2 > 100 µM | A549 > 100 µM | OVCAR-3 > 100 µM | EKVX > 100 µM | OVCAR-4 > 100 µM | OVCAR-8 > 100 µM | 786-0 > 100 µM | SK-MEL-5 > 100 µM | TK-10 > 100 µM | K562 > 100 µM

From ChEMBL document CHEMBL1201862, “PubChem BioAssay data set” (2004)
